Numbers after ± are expanded uncertainties.
How the values were obtained:
[1] = 100 kPa, Liquid; for speed of sound: Frequency=3 MHz, Sing-around technique in a fixed-path interferometer; for mass density: Vibrating tube method
[2] = mn = molality of the nth substance listed, in mol/kg; conditions: 100 kPa, Liquid, m2 = 0; for speed of sound: Frequency=3 MHz, Sing-around technique in a fixed-path interferometer; for mass density: Vibrating tube method

| SMILES | speed of sound ([1]; 298.15 K) [m/s] | mass density ([1]; 298.15 K) [kg/m3] | speed of sound ([1]; 303.15 K) [m/s] | mass density ([1]; 303.15 K) [kg/m3] | speed of sound ([1]; 308.15 K) [m/s] | mass density ([1]; 308.15 K) [kg/m3] | speed of sound ([1]; 313.15 K) [m/s] | mass density ([1]; 313.15 K) [kg/m3] | speed of sound ([1]; 318.15 K) [m/s] | mass density ([1]; 318.15 K) [kg/m3] | speed of sound ([2]; 298.15 K) [m/s] | mass density ([2]; 298.15 K) [kg/m3] | speed of sound ([2]; 303.15 K) [m/s] | mass density ([2]; 303.15 K) [kg/m3] | speed of sound ([2]; 308.15 K) [m/s] | mass density ([2]; 308.15 K) [kg/m3] | speed of sound ([2]; 313.15 K) [m/s] | mass density ([2]; 313.15 K) [kg/m3] | speed of sound ([2]; 318.15 K) [m/s] | mass density ([2]; 318.15 K) [kg/m3] |
| --- | --- | --- | --- | --- | --- | --- | --- | --- | --- | --- | --- | --- | --- | --- | --- | --- | --- | --- | --- | --- |
| CC(=O)N(C)C [N,N-dimethylethanamide] | 1455.8 ± 1.3 | 936.281 ± 0.14 | 1436 ± 1.3 | 931.672 ± 0.14 | 1416.1 ± 1.3 | 927.055 ± 0.14 | 1396.5 ± 1.3 | 922.422 ± 0.14 | 1376.9 ± 1.3 | 917.788 ± 0.14 |  |  |  |  |  |  |  |  |  |  |
| CC(=O)N(C)C [N,N-dimethylethanamide] + O=S(=O)([O-])C(F)(F)F.O=S(=O)([O-])C(F)(F)F.[Ca+2] |  |  |  |  |  |  |  |  |  |  | 1455.7 ± 1.3 | 936.279 ± 0.45 | 1435.9 ± 1.3 | 931.67 ± 0.45 | 1416.1 ± 1.3 | 927.058 ± 0.45 | 1396.5 ± 1.3 | 922.429 ± 0.45 | 1376.9 ± 1.3 | 917.793 ± 0.45 |
| CC(=O)N(C)C [N,N-dimethylethanamide] + O=S(=O)([O-])C(F)(F)F.O=S(=O)([O-])C(F)(F)F.[Mg+2] |  |  |  |  |  |  |  |  |  |  | 1455.9 ± 1.3 | 936.279 ± 0.46 | 1436 ± 1.3 | 931.67 ± 0.46 | 1416.2 ± 1.3 | 927.047 ± 0.46 | 1396.5 ± 1.3 | 922.416 ± 0.46 | 1376.9 ± 1.3 | 917.78 ± 0.46 |
| CC(=O)N(C)C [N,N-dimethylethanamide] + O=S(=O)([O-])C(F)(F)F.O=S(=O)([O-])C(F)(F)F.[Sr+2] |  |  |  |  |  |  |  |  |  |  | 1455.9 ± 1.3 | 936.29 ± 0.52 | 1435.9 ± 1.3 | 931.679 ± 0.52 | 1416.1 ± 1.3 | 927.058 ± 0.52 | 1396.5 ± 1.3 | 922.423 ± 0.52 | 1376.9 ± 1.3 | 917.79 ± 0.52 |
| CC(=O)N(C)C [N,N-dimethylethanamide] + [Ba+2].[O-][Cl+3]([O-])([O-])[O-].[O-][Cl+3]([O-])([O-])[O-] |  |  |  |  |  |  |  |  |  |  | 1455.9 ± 1.3 | 936.277 ± 0.54 | 1436 ± 1.3 | 931.67 ± 0.54 | 1416.2 ± 1.3 | 927.058 ± 0.54 | 1396.5 ± 1.3 | 922.423 ± 0.54 | 1376.9 ± 1.3 | 917.79 ± 0.55 |
| CN(C)C=O [dimethylformamide] | 1457.2 ± 1.3 | 943.913 ± 0.14 | 1437.9 ± 1.3 | 939.139 ± 0.14 | 1418.5 ± 1.3 | 934.354 ± 0.14 | 1399.3 ± 1.3 | 929.554 ± 0.14 | 1380 ± 1.3 | 924.744 ± 0.14 |  |  |  |  |  |  |  |  |  |  |
| CN(C)C=O [dimethylformamide] + O=S(=O)([O-])C(F)(F)F.O=S(=O)([O-])C(F)(F)F.[Ca+2] |  |  |  |  |  |  |  |  |  |  | 1457.2 ± 1.3 | 943.915 ± 0.44 | 1437.9 ± 1.3 | 939.142 ± 0.44 | 1418.5 ± 1.3 | 934.356 ± 0.45 | 1399.2 ± 1.3 | 929.553 ± 0.45 | 1380 ± 1.3 | 924.746 ± 0.45 |
| CN(C)C=O [dimethylformamide] + O=S(=O)([O-])C(F)(F)F.O=S(=O)([O-])C(F)(F)F.[Mg+2] |  |  |  |  |  |  |  |  |  |  | 1457.1 ± 1.3 | 943.905 ± 0.43 | 1437.9 ± 1.3 | 939.125 ± 0.43 | 1418.5 ± 1.3 | 934.34 ± 0.43 | 1399.2 ± 1.3 | 929.543 ± 0.43 | 1380 ± 1.3 | 924.732 ± 0.43 |
| CN(C)C=O [dimethylformamide] + O=S(=O)([O-])C(F)(F)F.O=S(=O)([O-])C(F)(F)F.[Sr+2] |  |  |  |  |  |  |  |  |  |  | 1457.2 ± 1.3 | 943.913 ± 0.51 | 1438 ± 1.3 | 939.144 ± 0.51 | 1418.6 ± 1.3 | 934.36 ± 0.51 | 1399.3 ± 1.3 | 929.56 ± 0.51 | 1380.1 ± 1.3 | 924.748 ± 0.51 |
| CN(C)C=O [dimethylformamide] + [Ba+2].[O-][Cl+3]([O-])([O-])[O-].[O-][Cl+3]([O-])([O-])[O-] |  |  |  |  |  |  |  |  |  |  | 1457.2 ± 1.3 | 943.919 ± 0.54 | 1437.8 ± 1.3 | 939.144 ± 0.54 | 1418.5 ± 1.3 | 934.36 ± 0.55 | 1399.2 ± 1.3 | 929.56 ± 0.55 | 1380 ± 1.3 | 924.748 ± 0.55 |

Reference: the NIST ThermoML archive (doi:10.1016/j.jct.2015.08.033)
